# Measured values from US20250194601A1, “PYRIDAZINONE COMPOUND OR SALT THEREOF AND PEST CONTROL AGENT CONTAINING IT” (ISHIHARA SANGYO KAISHA, LTD., priority 2022, published 2025).
# Assays:
# Type in all cases: in vivo
# [1] = system: brown planthopper (Nilaparvata luqens); assay: Comparative Test Example 1: brown planthopper, rice seedling dip; conditions: 5th day after release; for mortality at 50 ppm: Active ingredient concentration 50 ppm; for mortality at 200 ppm: Active ingredient concentration 200 ppm
# Description: (§1) Rice seedlings were dipped in a chemical solution of a test compound at a concentration of 200 ppm or 50 ppm. After the chemical solution dried in air, the root was wrapped with wet adsorbent cotton, and the seedlings were put into a test tube. About 10 second to third instar nymphs of brown planthopper (Nilaparvata luqens)were released, the test tube was covered with a gauze, and the test tube was left in a constant temperature chamber with lighting at 25° C. On the 5th day after release, the number of dead nymphs was counted, and the mortality (%) was calculated by the following formula.
# The test compounds are Compound No. 2-12 as the compound of the present invention and the following Comparative Compounds (A) and (B) as the comparative compounds.
# [2] = system: green peach aphid (Myzus persicae); assay: Comparative Test Example 2: green peach aphid, radish leaf dip; conditions: foliar, 5th day after the application; for mortality at 50 ppm: Active ingredient concentration 50 ppm; for mortality at 200 ppm: Active ingredient concentration 200 ppm
# Description: (§2) A Japanese radish leaf was inserted in a test tube in which water was put, and 5 adults of green peach aphid (Myzus persicae) were released on the leaf. On the next day, the adults were removed, and the number of nymphs parasitic on the leaf was counted as the number of tested nymphs, and then the leaf was dipped in a chemical solution of a test compound at a concentration of 200 ppm or 50 ppm. After the chemical solution dried in air, the leaf was left in a constant temperature chamber with lighting at 2500. On the 5th day after the application, the number of dead nymphs was counted, and the mortality (%) was calculated by the following formula. Nymphs that dropped from the leaf or nymphs that were moribund were counted as dead nymphs.
# The test compounds were the same as in Comparative Test Example 1.
# [3] = system: brown planthopper (Nilaparvata luqens); assay: whole plant or invertebrate; conditions: in Oryza sativa, second to third instar nymphs, 5th day after release
# Description: as §1, with “Test on effect against brown planthopper (Nilaparvata luqens) Rice” for “Rice”, “were” for “(Nilaparvata luqens)were”
# Mortality (%)=[(number of dead nymphs)/(number of released nymphs)]×100
# [4] = system: green peach aphid (Myzus persicae); assay: whole plant or invertebrate; conditions: in Raphanus sativus, foliar, nymphs, 5th day after the application
# Description: Test on effect against green peach aphid (Myzus persicae)
# as §2, with “aphid” for “aphid (Myzus persicae)”, “25° C.” for “2500.”
# Mortality (%)=[(Number of dead nymphs)/(number of tested nymphs)]x100
# [5] = system: two-spotted spider mite (Tetranychus urticae); assay: Test Example 3: effects against two-spotted spider mite, kidney bean leaf dip; conditions: foliar, adults, 3rd day after the application
# Description: Test on effects against two-spotted spider mite (Tetranychus urticae) In a chemical solution of a test compound at a concentration of 800 ppm, 200 ppm or 50 ppm, a leaf of kidney bean on which about 20 adults of two-spotted spider mite had been released, was dipped. After the chemical solution dried in air, the leaf was left in a constant temperature chamber with lighting at 25° C. On the 3rd day after the application, the number of dead adults was counted, and the mortality (%) was calculated by the following formula. Adults that dropped from the leaf or adults that were moribund were counted as dead adults.
SMILES,mortality at 50 ppm [1] [%],mortality at 200 ppm [1] [%],mortality at 50 ppm [2] [%],mortality at 200 ppm [2] [%],mortality at 200 ppm [3] [%],mortality at 200 ppm [4] [%],mortality at 200 ppm [5] [%],mortality at 800 ppm [5] [%]
CCc1nn(C)c(=O)c(-n2ccc(C(F)(F)F)n2)c1O [Comparative compound (A)],0,0,0,20,,,,
CCc1nn(-c2ccc(C(F)(F)F)cc2Cl)c(=O)c(-c2ccc(F)cc2)c1O [Comparative compound (B)],0,0,0,30,,,,
"Cc1ccn(-c2c(O)c(C(F)(F)F)nn(-c3c(C)cc(C(F)(F)F)cc3C)c2=O)n1 [2-516, 2-[2,6-dimethyl-4-(trifluoromethyl)phenyl]-5-hydroxy-4-(3-methyl-1 H-pyrazol-1-yl)-6-(trifluoromethyl)pyridazin-3(2H)-one]",,,,,≥ 90,≥ 90,≥ 80,
"COCc1nn(-c2c(C)cc(C(F)(F)F)cc2C)c(=O)c(-n2ccc(Cl)n2)c1O [2-444, 4-(3-chloro-1 H-pyrazol-1-yl)-2-[2,6-dimethyl-4-(trifluoromethyl)phenyl]-5-hydroxy-6-(methoxymethyl)pyridazin-3(2H)-one]",,,,,≥ 90,≥ 90,,
"CCc1ncn(-c2c(O)c(C(C)C)nn(-c3c(C)cc(C(F)(F)F)cc3C)c2=O)n1 [6-134, 2-[2,6-dimethyl-4-(trifluoromethyl)phenyl]-4-(3-ethyl-1 H-1,2,4-triazol-1-yl)-5-hydroxy-6-isopropylpyridazin-3(2H)-one]",,,,,≥ 90,≥ 90,≥ 80,
"CCc1nn(-c2c(C)cc(C#N)cc2C)c(=O)c(-n2cnc(Cl)n2)c1O [6-136, 4-[5-(3-chloro-1 H-1,2,4-triazol-1-yl)-3-ethyl-4-hydroxy-6-oxopyridazin-1(6H)-yl]-3,5-dimethylbenzonitrile]",,,,,≥ 90,≥ 90,,
"CCc1nn(-c2c(C)cc(S(=O)(=O)C(F)(F)F)cc2C)c(=O)c(-n2ccc(Cl)n2)c1O [2-191, 4-(3-chloro-1 H-pyrazol-1-yl)-2-{2,6-dimethyl-4-[(trifluoromethyl)sulfonyl]phenyl}-6-ethyl-5-hydroxypyridazin-3(2H)-one]",,,,,≥ 90,≥ 90,,
"CCc1nn(-c2c(C)cc(C(F)(F)F)cc2C)c(=O)c(-n2cnc([N+](=O)[O-])n2)c1O [6-65, 2-[2,6-dimethyl-4-(trifluoromethyl)phenyl]-6-ethyl-5-hydroxy-4-(3-nitro-1 H-1,2,4-triazol-1-yl)pyridazin-3(2H)-one]",,,,,≥ 90,≥ 90,,
"CCc1nn(-c2c(Cl)cc(C(F)(F)F)cc2Cl)c(=O)c(-n2ccc(C(F)(F)F)n2)c1O [2-97, 2-[2,6-dichloro-4-(trifluoromethyl)phenyl]-6-ethyl-5-hydroxy-4-[3-(trifluoromethyl)-1 H-pyrazol-1-yl]pyridazin-3(2H)-one]",,,,,≥ 90,≥ 90,,≥ 80
"CCc1nn(-c2ncc(C(F)(F)F)cc2Cl)c(=O)c(-n2ccc(C(F)(F)F)n2)c1O [1-57, 2-[3-chloro-5-(trifluoromethyl)pyridin-2-yl]-6-ethyl-5-hydroxy-4-[3-(trifluoromethyl)-1 H-pyrazol-1-yl]pyridazin-3(2H)-one]",,,,,≥ 90,≥ 90,,
CCc1nn(-c2ccc(C(F)(F)F)cc2Cl)c(=O)c(-n2ccc(C(F)(F)F)n2)c1O [2-12],100,100,100,100,≥ 90,≥ 90,,≥ 80
